The text below walks through data of patent US10555987B2, “GHRH agonists for the treatment of ischemic disorders” (UNIVERSITY OF MIAMI, priority 2012, dated 2020).

The subject of assay [1] is GH release. Description: GH releasing potency in vivo, subcutaneous administration (Example 14, Table 12). Particulars: s.c.; for Serum GH level at selected time after injection (ng/ml), 0 min / Serum GH level at selected time after injection (ng/ml), 15 min / Serum GH level at selected time after injection (ng/ml), 30 min: male rats, dose 3 μg/kg, mean ± SEM. Details: species or system rat. Here is the method: Male Sprague-Dawley rats, weighing 200-250 g, were purchased from Charles River Laboratory (Wilmington, Mass.) and used for experiments. All animal procedures were approved by the Veterans Affairs Animal Care and Use Committee and were conducted in accordance with additional institutional guidelines as well. Briefly, groups of 5-6 animals were used in each experiment. The rats were anesthetized with 50 mg/kg of sodium pentobarbital (Nembutal, Lundbeck Inc., Deerfield, Ill.). Twenty min after inducing anesthesia, GHRH(1-29)NH2, JI-38, or new analogs were injected into the animals intravenously (i.v.) or subcutaneously (s.c.). The peptides were dissolved in 0.01 M acetic acid to get 1 μg/μl stock solution, and then diluted with 5% mannitol. Control rats received 5% mannitol only. Blood samples were collected from the jugular vein at selected times and were used for serum preparation. Concentrations of GH in rat sera were determined by ELISA. The relative potencies of tested peptides were calculated using GHRH(1-29)NH2 and JI-38 for comparison, whose potency was defined as 1. The equivalent dosage of GHRH(1-29)NH2 to reach the same level of serum growth hormone release after injection of the specific tested peptide was determined from a GHRH(1-29)NH2 standard curve using Origin 6.0 software. […] Serum GH was determined using the rat Growth Hormone ELISA kit (ALPCO Diagnostics, Mill Valley, Calif.) according to the manufacturer's instruction. Absorbance at 405 nm was measured by a Victor 3 Multi-label Counter (Perkin-Elmer, Waltham, Md.).

The target in assay [2] is T1, GHRH receptor (Homo sapiens, UniProt Q02643).
T1 sequence (Q02643 23-423): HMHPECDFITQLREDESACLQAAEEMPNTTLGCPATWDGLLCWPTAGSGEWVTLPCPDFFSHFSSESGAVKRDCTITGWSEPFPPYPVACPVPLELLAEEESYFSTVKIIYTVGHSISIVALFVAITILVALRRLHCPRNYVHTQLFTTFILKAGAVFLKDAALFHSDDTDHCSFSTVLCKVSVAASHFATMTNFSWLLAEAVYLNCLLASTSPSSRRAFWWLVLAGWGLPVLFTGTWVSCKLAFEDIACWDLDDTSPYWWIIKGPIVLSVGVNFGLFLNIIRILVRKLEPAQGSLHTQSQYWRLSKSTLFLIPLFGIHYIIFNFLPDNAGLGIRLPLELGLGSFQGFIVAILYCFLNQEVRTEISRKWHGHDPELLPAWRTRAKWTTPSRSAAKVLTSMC
Description: GHRH receptor binding, competition with 125I-labeled JV-1-42, human pituitary membrane homogenates (Table 7). Details: Normal human pituitaries were purchased from the National Hormone and Peptide Program; tissue National Hormone and Peptide Program (A.F. Parlow, Harbor-UCLA Medical Center, Torrance, Calif.); host or cells: normal human pituitary, membrane fraction. Particulars: for Relative affinity (Binding potency) vs JI-38: JI-38 = 1, Table 7. The text has this:
Normal human pituitaries were purchased from the National Hormone and Peptide Program (A.F. Parlow, Los Angeles, County Harbor-UCLA Medical Center, Torrance, Calif.).

For assay [3], the target named is T1, GHRH receptor. The assay is described as follows: Receptor binding in vitro, 125I-labeled [His1,Nle27]-hGHRH(1-32)NH2, membrane receptors of human anterior pituitary cells (Table 14). Conditions: for Relative affinity (Binding potency) compared to JI-38: JI-38 = 1; for Relative affinity (Binding potency) compared to hGHRH(1-29): hGHRH(1-29)NH2 = 1.
Description: Normal human pituitary was purchased from the National Hormone and Peptide Program (UCLA Medical Center, Torrance, Calif.).

pIC50: −log10 of the molar value. Non-standard residues stand in square brackets, D forms with d. Residues, ends and D or L forms follow the SMILES beside them. *: point of attachment. Desaminotyrosyl = O=C(CCc1ccc(O)cc1)*; NMeY = CN[C@@H](Cc1ccc(O)cc1)C(=O)O; Nle = CCCC[C@H](N)C(=O)O; Orn = NCCC[C@H](N)C(=O)O; Abu = CC[C@H](N)C(=O)O

Usually pIC50 stands for −log10 of the IC50, conventionally taken in molar units. A high value points to a low IC50.

Turning to `CCCC[C@H](NC(=O)[C@@H](NC(=O)[C@H](CC(=O)O)NC(=O)[C@H](CCC(N)=O)NC(=O)[C@H](CC(C)C)NC(=O)[C@H](CC(C)C)NC(=O)[C@H](CCCN)NC(=O)[C@H](CCCNC(=N)N)NC(=O)[C@H](C)NC(=O)[C@H](CO)NC(=O)[C@H](CC(C)C)NC(=O)[C@H](CCC(N)=O)NC(=O)[C@H](CC)NC(=O)[C@H](CC(C)C)NC(=O)[C@@H](NC(=O)[C@H](CCCN)NC(=O)[C@H](CCCNC(=N)N)NC(=O)[C@H](Cc1ccc(O)cc1)NC(=O)[C@H](CO)NC(=O)[C@H](CCC(N)=O)NC(=O)[C@@H](NC(=O)[C@H](Cc1ccccc1)NC(=O)[C@@H](NC(=O)[C@H](C)NC(=O)[C@H](CC(=O)O)NC(=O)[C@@H](C)NC(=O)[C@H](Cc1ccc(O)cc1)NC)[C@@H](C)CC)[C@@H](C)O)C(C)C)[C@@H](C)CC)C(=O)N[C@@H](CC(=O)O)C(=O)N[C@@H](CCCNC(=N)N)C(=O)NCC` [Peptide P-28420, [N—Me-Tyr^1, D-Ala^2, Gln^8, Orn^12, Abu^15, Orn^21, Nle^27, Asp^28]hGHRH(1-29)NH—CH2—CH3] (H-[NMeY][dA]DAIFTQSYR[Orn]VL[Abu]QLSAR[Orn]LLQDI[Nle]DR-NHEt), in assay [1], the “Serum GH level at selected time after injection (ng/ml), 0 min” value worked out at 35.5 ± 7.6 ng/mL; the “Serum GH level at selected time after injection (ng/ml), 15 min” value (“Serum GH level at selected time … 15 min” for short) came to 256.2 ± 46.0 ng/mL; the “Serum GH level at selected time after injection (ng/ml), 30 min” value (shortened to “Serum GH level at selected time … 30 min”) is 126.1 ± 15.8 ng/mL; the “Relative potency compared to GHRH(1-29), 15 min” value is listed as 72.6. For the same compound, in assay [1], the “Relative potency compared to JI-38, 15 min” value is 1.15; the “Relative potency compared to GHRH(1-29), 30 min” value is 107.8; the “Relative potency compared to JI-38, 30 min” value was found to be 0.96. Further, the “Relative affinity (Binding potency) vs JI-38” value (“Relative affinity … vs JI-38” below) in assay [2] stood at 8.37. In assay [3], the “Relative affinity (Binding potency) compared to JI-38” value (shortened to “Relative affinity … to JI-38”) was 1.01 and the “Relative affinity (Binding potency) compared to hGHRH(1-29)” value (from here on “Relative affinity … to hGHRH(1-29)”) amounted to 2.83.

On to `CCCC[C@H](NC(=O)[C@@H](NC(=O)[C@H](CC(=O)O)NC(=O)[C@H](CCC(N)=O)NC(=O)[C@H](CC(C)C)NC(=O)[C@H](CC(C)C)NC(=O)[C@H](CCCN)NC(=O)[C@H](CCCNC(=N)N)NC(=O)[C@H](C)NC(=O)[C@H](CO)NC(=O)[C@H](CC(C)C)NC(=O)[C@H](CCC(N)=O)NC(=O)[C@H](CC)NC(=O)[C@H](CC(C)C)NC(=O)[C@@H](NC(=O)[C@H](CCCN)NC(=O)[C@H](CCCNC(=N)N)NC(=O)[C@H](Cc1ccc(O)cc1)NC(=O)[C@H](CO)NC(=O)[C@H](CCC(N)=O)NC(=O)[C@@H](NC(=O)[C@H](Cc1ccccc1)NC(=O)[C@@H](NC(=O)[C@H](C)NC(=O)[C@H](CC(=O)O)NC(=O)[C@@H](C)NC(=O)CCc1ccc(O)cc1)[C@@H](C)CC)[C@@H](C)O)C(C)C)[C@@H](C)CC)C(=O)N[C@@H](CC(=O)O)C(=O)N[C@@H](CCCNC(=N)N)C(=O)NC` [Peptide P-27408, [Dat^1, D-Ala^2, Gln^8, Orn^12, Abu^15, Orn^21, Nle^27, Asp^28]hGHRH(1-30)NH—CH3] (Desaminotyrosyl-[dA]DAIFTQSYR[Orn]VL[Abu]QLSAR[Orn]LLQDI[Nle]DR-NHMe), for which, in assay [1], the “Serum GH level at selected time after injection (ng/ml), 0 min” value is 37.6 ± 15.5 ng/mL; the “Serum GH level at selected time … 15 min” value stood at 213.3 ± 32.0 ng/mL; the “Serum GH level at selected time … 30 min” value amounted to 121.2 ± 8.4 ng/mL; the “Relative potency compared to GHRH(1-29), 15 min” value was 57.2. Moreover, in assay [1], the “Relative potency compared to JI-38, 15 min” value is on record as 0.91; the “Relative potency compared to GHRH(1-29), 30 min” value was determined as 100.5; the “Relative potency compared to JI-38, 30 min” value amounted to 0.90. Also, the pIC50 in assay [2] (125I-JV-1-42, human pituitary membranes, Table 7) was 9.26. Besides, the “Relative affinity … vs JI-38” value in assay [2] is listed as 7.91. In assay [3], the “Relative affinity … to JI-38” value is reported as 0.53 and the “Relative affinity … to hGHRH(1-29)” value is 1.21.

Turning to `CCCC[C@H](NC(=O)[C@@H](NC(=O)[C@H](CC(=O)O)NC(=O)[C@H](CCC(N)=O)NC(=O)[C@H](CC(C)C)NC(=O)[C@H](CC(C)C)NC(=O)[C@H](CCCN)NC(=O)[C@H](CCCNC(=N)N)NC(=O)[C@H](C)NC(=O)[C@H](CO)NC(=O)[C@H](CC(C)C)NC(=O)[C@H](CCC(N)=O)NC(=O)[C@H](CC)NC(=O)[C@H](CC(C)C)NC(=O)[C@@H](NC(=O)[C@H](CCCN)NC(=O)[C@H](CCCNC(=N)N)NC(=O)[C@H](Cc1ccc(O)cc1)NC(=O)[C@H](CO)NC(=O)[C@H](CCC(N)=O)NC(=O)[C@@H](NC(=O)[C@H](Cc1ccccc1)NC(=O)[C@@H](NC(=O)[C@H](C)NC(=O)[C@H](CC(=O)O)NC(=O)[C@H](C)NC(=O)CCc1ccc(O)cc1)[C@@H](C)CC)[C@@H](C)O)C(C)C)[C@@H](C)CC)C(=O)N[C@@H](CC(=O)O)C(=O)N[C@@H](CCCNC(=N)N)C(=O)NC` [Peptide P-27407, [Dat^1, Gln^8, Orn^12, Abu^15, Orn^21, Nle^27, Asp^28]hGHRH(1-29)NH—CH3] (Desaminotyrosyl-ADAIFTQSYR[Orn]VL[Abu]QLSAR[Orn]LLQDI[Nle]DR-NHMe), in assay [1], the “Serum GH level at selected time after injection (ng/ml), 0 min” value came to 36.7 ± 10.2 ng/mL; the “Serum GH level at selected time … 15 min” value was found to be 248.0 ± 40.5 ng/mL; the “Serum GH level at selected time … 30 min” value was found to be 135.2 ± 10.8 ng/mL; the “Relative potency compared to GHRH(1-29), 15 min” value is given as 69.6. In assay [1], the “Relative potency compared to JI-38, 15 min” value came out at 1.10; the “Relative potency compared to GHRH(1-29), 30 min” value is reported as 122; the “Relative potency compared to JI-38, 30 min” value is given as 1.09. Further, the “Relative affinity … vs JI-38” value in assay [2] is 1.45. In assay [3], the “Relative affinity … to JI-38” value came to 0.54 and the “Relative affinity … to hGHRH(1-29)” value is 1.52.

As to `CCCC[C@H](NC(=O)[C@@H](NC(=O)[C@H](CC(=O)O)NC(=O)[C@H](CCC(N)=O)NC(=O)[C@H](CC(C)C)NC(=O)[C@H](CC(C)C)NC(=O)[C@H](CCCN)NC(=O)[C@H](CCCNC(=N)N)NC(=O)[C@H](C)NC(=O)[C@H](CO)NC(=O)[C@H](CC(C)C)NC(=O)[C@H](CCC(N)=O)NC(=O)[C@H](CC)NC(=O)[C@H](CC(C)C)NC(=O)[C@@H](NC(=O)[C@H](CCCN)NC(=O)[C@H](CCCNC(=N)N)NC(=O)[C@H](Cc1ccc(O)cc1)NC(=O)[C@H](CO)NC(=O)[C@H](CC(N)=O)NC(=O)[C@@H](NC(=O)[C@H](Cc1ccccc1)NC(=O)[C@@H](NC(=O)[C@H](C)NC(=O)[C@H](CC(=O)O)NC(=O)[C@@H](C)NC(=O)[C@H](Cc1ccc(O)cc1)NC)[C@@H](C)CC)[C@@H](C)O)C(C)C)[C@@H](C)CC)C(=O)N[C@@H](CC(=O)O)C(=O)N[C@@H](CCCNC(=N)N)C(=O)NCC` [Peptide P-28421, [N—Me-Tyr^1, D-Ala^2, Orn^12, Abu^15, Orn^21, Nle^27, Asp^28]hGHRH(1-29) NH—CH2—CH3] (H-[NMeY][dA]DAIFTNSYR[Orn]VL[Abu]QLSAR[Orn]LLQDI[Nle]DR-NHEt), in assay [1], the “Serum GH level at selected time after injection (ng/ml), 0 min” value came out at 44.0 ± 8.9 ng/mL; the “Serum GH level at selected time … 15 min” value is 252.4 ± 33.3 ng/mL; the “Serum GH level at selected time … 30 min” value turned out to be 137.3 ± 17.5 ng/mL; the “Relative potency compared to GHRH(1-29), 15 min” value is 71.2. For the same compound, in assay [1], the “Relative potency compared to JI-38, 15 min” value is on record as 1.13; the “Relative potency compared to GHRH(1-29), 30 min” value was found to be 125.4; the “Relative potency compared to JI-38, 30 min” value was 1.12. For the same compound, in assay [2], the “Relative affinity … vs JI-38” value is listed as 2.96. In assay [3], the “Relative affinity … to JI-38” value is 0.90 and the “Relative affinity … to hGHRH(1-29)” value is listed as 2.50.
